Measurements: patent publication US20260034173A1, “USE OF MANGANESE-CONTAINING COMPOUND IN REDUCING LEVEL OF URIC ACID OF MAMMALIAN SUBJECT” (Shanghai Shiqu Pharmaceutical Technology Co., Ltd., priority 2022, published 2026)

Legend:
[1] = system: oteracil potassium and hypoxanthine induced hyperuricemia model mice; assay: Oteracil potassium and hypoxanthine induced hyperuricemia model mice; format: in vivo, C57BL/6J mice; conditions: day 8; benzbromarone 10 mg/kg gavage, allopurinol 50 mg/L drinking water, manganese oxides 1.14 w/w % in diet
Description: Hypoxanthine can be metabolized into uric acid in the body, so it can also be used in combination with oteracil potassium as a model drug for inducing hyperuricemia in mice. In this example, the healthy mice were randomly divided into 7 groups, the mouse hyperuricemia model was established by administering oteracil potassium and hypoxanthine (they were injected intraperitoneally together) to 6 groups of mice, and 1 group of healthy mice injected intraperitoneally with normal saline was taken as the blank control group. The mice of the experimental groups were given the corresponding experimental substances according to the dosing regimen described in the following experimental method.
From the first day (i.e. the day of the experiment) to the eighth day after the start of the experiment, the blank control group was intraperitoneally injected with normal saline at 9:00 a.m. and 5:00 p.m. every day, and the remaining groups were intraperitoneally injected with modeling solution (100 mg/kg hypoxanthine+100 mg/kg oteracil potassium) at 9:00 am, and 5:00 p.m. every day. The benzbromarone group was administered with benzbromarone solution (10 mg/kg) by gavage at 10 am every day. […]

[2] = system: oteracil potassium and adenine induced hyperuricemia model mice; assay: Oteracil potassium and adenine induced hyperuricemia model mice; format: in vivo, KM mice; conditions: day 6; allopurinol 50 mg/L drinking water, febuxostat 5 mg/kg/day gavage, manganese oxides 1.16 w/w % in diet
Text: Oteracil potassium and adenine are known to be model drugs capable of inducing hyperuricemia in mice. Specifically, oteracil potassium is a urate oxidase inhibitor that can inhibit further metabolism of uric acid in mice, thereby increasing the concentration of uric acid in the blood of mice; adenine can damage the kidneys, thereby reducing the excretion of uric acid from the kidneys of mice. […] Six days after the beginning of the experiment, 24-hour urine of each group of mice was collected and uric acid content in the urine was detected by the uric acid assay kit to investigate the effects of various experimental substances on the amount of uric acid excreted in the urine of mice.
The control group was fed with basic mouse diet the first day (i.e. the day of the experiment) to the seventh day after the start of the experiment, and the other groups were fed with modeling mouse diet (4.4 w/w % oteracil potassium and 0.44 w/w % adenine were added into the basic mouse diet) for inducing hyperuricemia. […] The uric acid level in urine was measured using a uric acid assay kit (Solarbio, Beijing, China), and the amount of uric acid excreted through urine in 24 hours was calculated based on the urine volume.

[3] = system: urate oxidase knockout (UOX KO) mice; assay: Experiment on urate oxidase knockout (UOX KO) mice; format: in vivo; conditions: gavage daily; blood and 24-hour urine
Text: Urate oxidase knockout (UOX KO) mice aged 6 to 8 weeks were selected, and urine and blood were collected after one week of acclimation to test urine uric acid and blood uric acid levels. […] Mice were gavaged with corresponding drugs daily. After the start of drug administration, the blood of mice was collected every other week to prepare serum, and 24-hour urine was collected to detect the uric acid content in the urine using a uric acid assay kit.

Row | SMILES | serum uric acid level (FIG. 22) [1] | amount of uric acid excreted in the urine within 24 hours (FIG. 20) [2] | reduction of uric acid in UOX KO mice [3]
1 | CCc1oc2ccccc2c1C(=O)c1cc(Br)c(O)c(Br)c1 [benzbromarone] | significantly reduced |  | 
2 | Oc1ncnc2[nH]ncc12 [allopurinol] | significantly reduced | at a high level | effective in reducing uric acid
3 | Cc1nc(-c2ccc(OCC(C)C)c(C#N)c2)sc1C(=O)O [febuxostat] |  | at a high level | 
